Assay results reported in ChEMBL document CHEMBL1932963, “Mitochondrial targeting of a cationic amphiphilic polyproline helix” (Bioorg Med Chem Lett, 2012).

Columns and labels:
HeLa [1] = test: Cellular uptake in human HeLa cells after 4 hrs by flow cytometry; assay type: ADME, cell-based
HeLa [2] = test: Cellular uptake in human HeLa cells at 5 uM after 4 hrs by flow cytometry relative control; assay type: ADME, cell-based
[3] = Cellular uptake in human HeLa cell lysosomes using LysoTracker dye at 1 uM after 4 hrs; assay type: ADME, cell-based, Lysosome
[4] = Cellular uptake in human HeLa cell mitochondria using mitotracker dye at 1 uM after 4 hrs; assay type: ADME
[5] = Cellular uptake in human HeLa cell mitochondria using mitotracker dye at 5 uM after 4 hrs; assay type: ADME
[6] = Cellular uptake in human HeLa cell mitochondria using mitotracker dye at 5 uM after 30 mins; assay type: ADME; details: 0.5 h
[7] = Cellular uptake in human HeLa cell mitochondria using mitotracker dye at 5 uM after 1 hr by confocal microscopy in presence of FCCP; assay type: ADME
[8] = Cellular uptake in human HeLa cell lysosomes using LysoTracker dye at 5 uM after 1 hr by confocal microscopy in presence of FCCP; assay type: ADME, cell-based, Lysosome
[9] = Cellular uptake in human HeLa cell cytosol at 5 uM after 1 hr by confocal microscopy in presence of FCCP; assay type: ADME, cell-based
HeLa [10] = test: Cellular uptake in human HeLa cells assessed as increase in cellular fluorescence at 5 uM after 4 hrs by flow cytometry relative to control; assay type: ADME, cell-based
HeLa [11] = test: Cellular uptake in human HeLa cells up to 2.5 uM after 4 hrs by flow cytometry; assay type: ADME, cell-based

SMILES | Drug uptake (HeLa [1]) | Ratio (HeLa [2]) | Drug uptake [3] | Drug uptake [4] | Drug uptake [5] | Drug uptake [6] | Drug uptake [7] | Drug uptake [8] | Drug uptake [9] | Ratio (HeLa [10]) | Drug uptake (HeLa [11])
CC(C)CO[C@H]1C[C@H](C(=O)N2C[C@@H](OCCCNC(=N)N)C[C@@H]2C(=O)N2C[C@@H](OCCCNC(=N)N)C[C@@H]2C(=O)N2C[C@@H](OCC(C)C)C[C@@H]2C(=O)N2C[C@@H](OCCCNC(=N)N)C[C@@H]2C(=O)N2C[C@@H](OCCCNC(=N)N)C[C@@H]2C(=O)N2C[C@@H](OCC(C)C)C[C@@H]2C(N)=O)N(C[C@H]2C[C@H](OCCCNC(=N)N)CN2C(=O)[C@H]2C[C@H](OCCCNC(=N)N)CN2C(=O)[C@H]2C[C@H](OCC(C)C)CN2C(=O)[C@H]2C[C@H](OCCCNC(=N)N)CN2C(=O)[C@H]2C[C@H](OCCCNC(=N)N)CN2C(=O)[C@H]2C[C@H](OCC(C)C)CN2C(=O)CNC(=O)c2cccc(-c3c4ccc(=O)cc-4oc4cc(O)ccc34)c2C(=O)O)C1 | Dose-dependent effect | 7.5 | Active | Active | Active | Active | Not Active | Active | Active | 14 | 
N=C(N)NCCC[C@H](NC(=O)[C@H](CCCNC(=N)N)NC(=O)[C@H](CCCNC(=N)N)NC(=O)[C@H](CCC(N)=O)NC(=O)[C@H](CCCNC(=N)N)NC(=O)[C@H](CCCNC(=N)N)NC(=O)[C@H](CCCCN)NC(=O)[C@H](CCCCN)NC(=O)[C@H](CCCNC(=N)N)NC(=O)CNC(=O)[C@H](Cc1ccc(O)cc1)NC(=O)c1ccccc1-c1c2ccc(=O)cc-2oc2cc(O)ccc12)C(N)=O |  |  |  |  |  |  |  |  |  |  | Not Active
